Reference: ChEMBL document CHEMBL1201862, “PubChem BioAssay data set” (2004)
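These data come from cells grown in 96-well plates and exposed to compound for 48 hours at five concentrations. At the GI50, growth is halved.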 Active and inactive are the calls of the source. Rule as the data show it: active = GI50 up to about 1.1 µM and inactive = higher.

Experiments:
Assay in all cases: NCI anticancer screen, dose series, 48 h
UACC-62 = tested on: UACC-62
OVCAR-4 = tested on: OVCAR-4
IGROV-1 = tested on: IGROV-1
SK-MEL-5 = tested on: SK-MEL-5
RXF 393 = tested on: RXF 393
Malme-3M = tested on: Malme-3M
DU-145 = tested on: DU-145
MDA-MB-435 = tested on: MDA-MB-435
SF-539 = tested on: SF-539
A498 = tested on: A498
SK-MEL-28 = tested on: SK-MEL-28
SW-620 = tested on: SW-620
CAKI-1 = tested on: CAKI-1
SN12C = tested on: SN12C
HCT-116 = tested on: HCT-116
PC-3 = tested on: PC-3
SK-OV-3 = tested on: SK-OV-3
Hs-578T = tested on: Hs-578T
NCI-H460 = tested on: NCI-H460
MOLT-4 = tested on: MOLT-4
HT-29 = tested on: HT-29
SK-MEL-2 = tested on: SK-MEL-2
BT-549 = tested on: BT-549
TK-10 = tested on: TK-10
K562 = tested on: K562
HOP-92 = tested on: HOP-92
KM12 = tested on: KM12
MDA-N = tested on: MDA-N
HOP-62 = tested on: HOP-62
OVCAR-3 = tested on: OVCAR-3
HCT-15 = tested on: HCT-15
T47D = tested on: T47D
OVCAR-8 = tested on: OVCAR-8
OVCAR-5 = tested on: OVCAR-5
SNB-75 = tested on: SNB-75
NCI/ADR-RES = tested on: NCI/ADR-RES
SR = tested on: SR
UACC-257 = tested on: UACC-257
COLO 205 = tested on: COLO 205
NCI-H226 = tested on: NCI-H226
HCC 2998 = tested on: HCC 2998
SF-295 = tested on: SF-295
M14 = tested on: M14
HL-60 = tested on: HL-60
NCI-H522 = tested on: NCI-H522
EKVX = tested on: EKVX
UO-31 = tested on: UO-31
786-0 = tested on: 786-0
U-251 = tested on: U-251
SF-268 = tested on: SF-268
A549 = tested on: A549
MDA-MB-231 = tested on: MDA-MB-231
MCF7 = tested on: MCF7
LOX IMVI = tested on: LOX IMVI
ACHN = tested on: ACHN
SNB-19 = tested on: SNB-19
NCI-H23 = tested on: NCI-H23
CCRF-CEM = tested on: CCRF-CEM
RPMI-8226 = tested on: RPMI-8226

O=C(CCC=C(S(=O)(=O)c1ccccc1)S(=O)(=O)c1ccccc1)c1ccccc1
GI50 (UACC-62): 6.92 µM (inactive)
GI50 (OVCAR-4): 9.33 µM (inactive)
GI50 (IGROV-1): 12.3 µM (inactive)
GI50 (SK-MEL-5): 6.97 µM (inactive)
GI50 (RXF 393): 4.18 µM (inactive)
GI50 (Malme-3M): 4.45 µM (inactive)
GI50 (DU-145): 5.64 µM (inactive)
GI50 (MDA-MB-435): 5.25 µM (inactive)
GI50 (SF-539): 2.96 µM (inactive)
GI50 (A498): 17.3 µM (inactive)
GI50 (SK-MEL-28): 12.1 µM (inactive)
GI50 (SW-620): 3.4 µM (inactive)
GI50 (CAKI-1): 5.96 µM (inactive)
GI50 (SN12C): 3.26 µM (inactive)
GI50 (HCT-116): 3.42 µM (inactive)
GI50 (PC-3): 3.64 µM (inactive)
GI50 (SK-OV-3): 25.4 µM (inactive)
GI50 (Hs-578T): 5.22 µM (inactive)
GI50 (NCI-H460): 12.9 µM (inactive)
GI50 (MOLT-4): 3.98 µM (inactive)
GI50 (HT-29): 4.91 µM (inactive)
GI50 (SK-MEL-2): 2.38 µM (inactive)
GI50 (BT-549): 5.82 µM (inactive)
GI50 (TK-10): 6.38 µM (inactive)
GI50 (K562): 3.73 µM (inactive)
GI50 (HOP-92): 14.5 µM (inactive)
GI50 (KM12): 10.9 µM (inactive)
GI50 (MDA-N): 3.69 µM (inactive)
GI50 (HOP-62): 16.8 µM (inactive)
GI50 (OVCAR-3): 4.27 µM (inactive)
GI50 (HCT-15): 5.98 µM
GI50 (T47D): 5.43 µM (inactive)
GI50 (OVCAR-8): 4.58 µM (inactive)
GI50 (OVCAR-5): 10.7 µM (inactive)
GI50 (SNB-75): 3.61 µM (inactive)
GI50 (NCI/ADR-RES): 4.06 µM (inactive)
GI50 (SR): 3.01 µM (inactive)
GI50 (UACC-257): 8.91 µM (inactive)
GI50 (COLO 205): 7.11 µM (inactive)
GI50 (NCI-H226): 17.4 µM (inactive)
GI50 (HCC 2998): 7.66 µM (inactive)
GI50 (SF-295): 22.5 µM (inactive)
GI50 (M14): 7.1 µM (inactive)
GI50 (HL-60): 1.86 µM (inactive)
GI50 (NCI-H522): 2.76 µM (inactive)
GI50 (EKVX): 12.7 µM (inactive)
GI50 (UO-31): 6.15 µM (inactive)
GI50 (786-0): 3.21 µM (inactive)
GI50 (U-251): 4.03 µM (inactive)
GI50 (SF-268): 4.59 µM (inactive)
GI50 (A549): 17.1 µM (inactive)
GI50 (MDA-MB-231): 8.04 µM (inactive)
GI50 (MCF7): 4.47 µM (inactive)
GI50 (LOX IMVI): 3.26 µM (inactive)
GI50 (ACHN): 5.93 µM (inactive)
GI50 (SNB-19): 13.6 µM (inactive)

C/C=C(/C)C(=O)O[C@H]1C(C)=C[C@]23C(=O)[C@@H](C=C(COC(C)=O)[C@@H](O)[C@]12O)[C@H]1[C@@H](C[C@H]3C)[C@@]1(C)OC(=O)/C(C)=C\C
GI50 (UACC-62): 2.37 µM (inactive)
GI50 (OVCAR-4): 2.77 µM (inactive)
GI50 (IGROV-1): 3.2 µM (inactive)
GI50 (SK-MEL-5): 0.307 µM (active)
GI50 (RXF 393): 2.65 µM (inactive)
GI50 (Malme-3M): 0.111 µM (active)
GI50 (DU-145): 2.23 µM (inactive)
GI50 (MDA-MB-435): 2.13 µM (inactive)
GI50 (SF-539): 2.81 µM (inactive)
GI50 (A498): 2.72 µM (inactive)
GI50 (SK-MEL-28): 3.69 µM (inactive)
GI50 (SW-620): 2.55 µM (inactive)
GI50 (CAKI-1): 2.75 µM (inactive)
GI50 (SN12C): 1.69 µM (inactive)
GI50 (HCT-116): 2.14 µM (inactive)
GI50 (PC-3): 1.4 µM (inactive)
GI50 (SK-OV-3): 4.19 µM (inactive)
GI50 (Hs-578T): 0.0792 µM (active)
GI50 (NCI-H460): 0.0244 µM (active)
GI50 (MOLT-4): 0.0449 µM (active)
GI50 (HT-29): 0.411 µM (active)
GI50 (SK-MEL-2): 3 µM (inactive)
GI50 (BT-549): 2.38 µM (inactive)
GI50 (TK-10): 2.72 µM (inactive)
GI50 (K562): 0.0205 µM (active)
GI50 (HOP-92): 1.25 µM (inactive)
GI50 (KM12): 1.32 µM (inactive)
GI50 (MDA-N): 1.17 µM (inactive)
GI50 (HOP-62): 2.37 µM (inactive)
GI50 (OVCAR-3): 3.05 µM (inactive)
GI50 (HCT-15): 2.96 µM
GI50 (T47D): 1.22 µM (inactive)
GI50 (OVCAR-8): 3.72 µM (inactive)
GI50 (OVCAR-5): 3.15 µM (inactive)
GI50 (SNB-75): 1.52 µM (inactive)
GI50 (NCI-H23): 2.42 µM (inactive)
GI50 (NCI/ADR-RES): 2.65 µM (inactive)
GI50 (SR): 2.67 µM (inactive)
GI50 (CCRF-CEM): 0.486 µM (active)
GI50 (UACC-257): 3.63 µM (inactive)
GI50 (COLO 205): 0.0596 µM (active)
GI50 (NCI-H226): 3.07 µM (inactive)
GI50 (HCC 2998): 1.49 µM (inactive)
GI50 (SF-295): 1.08 µM (active)
GI50 (M14): 2.29 µM (inactive)
GI50 (HL-60): 0.094 µM (active)
GI50 (NCI-H522): 1.8 µM (inactive)
GI50 (EKVX): 2.9 µM (inactive)
GI50 (UO-31): 0.442 µM (active)
GI50 (786-0): 1.52 µM (inactive)
GI50 (U-251): 2.45 µM (inactive)
GI50 (SF-268): 0.655 µM (active)
GI50 (A549): 0.15 µM (active)
GI50 (MDA-MB-231): 3.03 µM (inactive)
GI50 (MCF7): 2.35 µM (inactive)
GI50 (LOX IMVI): 3.1 µM (inactive)
GI50 (ACHN): 0.546 µM (active)
GI50 (SNB-19): 3.01 µM (inactive)

CN(C)Cc1cc(C(=O)/C=C/c2cccc(Cl)c2)cc(CN(C)C)c1O
GI50 (UACC-62): 6.56 µM (inactive)
GI50 (IGROV-1): 3.27 µM (inactive)
GI50 (SK-MEL-5): 2.41 µM (inactive)
GI50 (RXF 393): 7.05 µM (inactive)
GI50 (DU-145): 6.3 µM (inactive)
GI50 (MDA-MB-435): 3.48 µM (inactive)
GI50 (RPMI-8226): 2.69 µM (inactive)
GI50 (SF-539): 6.14 µM (inactive)
GI50 (A498): 3.22 µM (inactive)
GI50 (SK-MEL-28): 4.16 µM (inactive)
GI50 (SW-620): 4.41 µM (inactive)
GI50 (CAKI-1): 1.68 µM (inactive)
GI50 (SN12C): 3.39 µM (inactive)
GI50 (HCT-116): 3.21 µM (inactive)
GI50 (PC-3): 8.99 µM (inactive)
GI50 (Hs-578T): 11.4 µM (inactive)
GI50 (NCI-H460): 3.05 µM (inactive)
GI50 (MOLT-4): 3.43 µM (inactive)
GI50 (HT-29): 4.18 µM (inactive)
GI50 (SK-MEL-2): 9.25 µM (inactive)
GI50 (BT-549): 9.64 µM (inactive)
GI50 (TK-10): 9.2 µM (inactive)
GI50 (K562): 2.91 µM (inactive)
GI50 (HOP-92): 4.31 µM (inactive)
GI50 (KM12): 4.97 µM (inactive)
GI50 (MDA-N): 3.1 µM (inactive)
GI50 (HOP-62): 3.65 µM (inactive)
GI50 (OVCAR-3): 2.67 µM (inactive)
GI50 (HCT-15): 2.84 µM
GI50 (T47D): 4.18 µM (inactive)
GI50 (OVCAR-8): 8.55 µM (inactive)
GI50 (OVCAR-5): 5.69 µM (inactive)
GI50 (SNB-75): 1.95 µM (inactive)
GI50 (NCI-H23): 14.3 µM (inactive)
GI50 (NCI/ADR-RES): 18.5 µM (inactive)
GI50 (SR): 2.28 µM (inactive)
GI50 (CCRF-CEM): 2.07 µM (inactive)
GI50 (UACC-257): 5.56 µM (inactive)
GI50 (COLO 205): 1.77 µM (inactive)
GI50 (NCI-H226): 4.31 µM (inactive)
GI50 (HCC 2998): 10.6 µM (inactive)
GI50 (SF-295): 13.5 µM (inactive)
GI50 (M14): 3.37 µM (inactive)
GI50 (HL-60): 1.69 µM (inactive)
GI50 (NCI-H522): 5.98 µM (inactive)
GI50 (EKVX): 7.03 µM (inactive)
GI50 (UO-31): 5.78 µM (inactive)
GI50 (786-0): 3.29 µM (inactive)
GI50 (U-251): 2.74 µM (inactive)
GI50 (SF-268): 6.62 µM (inactive)
GI50 (A549): 11.8 µM (inactive)
GI50 (MDA-MB-231): 2.75 µM (inactive)
GI50 (MCF7): 4.44 µM (inactive)
GI50 (LOX IMVI): 2.24 µM (inactive)
GI50 (ACHN): 2.99 µM (inactive)
GI50 (SNB-19): 24.5 µM (inactive)
